Results published in PubChem BioAssay (NCI).
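In this assay, cells in 96-well plates receive the compound at five concentrations for 48 hours. Endpoints are linearly interpolated between the surrounding concentrations. Abbreviation: GI50, concentration required for 50% inhibition of growth. Definition used: TGI = concentration required for complete inhibition of growth.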

Key:
Experiment in all cases: inhibition of tumour cell growth, NCI panel, 48 h
HL-60(TB) leukemia = system: HL-60(TB) leukemia
SNB-19 CNS = system: SNB-19 CNS
HCT-116 colon = system: HCT-116 colon
SK-MEL-5 melanoma = system: SK-MEL-5 melanoma
KM12 colon = system: KM12 colon
COLO 205 colon = system: COLO 205 colon
NCI-H522 lung = system: NCI-H522 lung
SNB-75 CNS = system: SNB-75 CNS
CCRF-CEM leukemia = system: CCRF-CEM leukemia
MDA-MB-435 = system: MDA-MB-435

SMILES	GI50 (HL-60(TB) leukemia) [µM]	TGI (HL-60(TB) leukemia) [µM]	GI50 (SNB-19 CNS) [µM]	TGI (SNB-19 CNS) [µM]	GI50 (HCT-116 colon) [µM]	TGI (HCT-116 colon) [µM]	GI50 (SK-MEL-5 melanoma) [µM]	TGI (SK-MEL-5 melanoma) [µM]	GI50 (KM12 colon) [µM]	TGI (KM12 colon) [µM]	GI50 (COLO 205 colon) [µM]	TGI (COLO 205 colon) [µM]	GI50 (NCI-H522 lung) [µM]	TGI (NCI-H522 lung) [µM]	GI50 (SNB-75 CNS) [µM]	TGI (SNB-75 CNS) [µM]	GI50 (CCRF-CEM leukemia) [µM]	TGI (CCRF-CEM leukemia) [µM]	GI50 (MDA-MB-435) [µM]	TGI (MDA-MB-435) [µM]
C=C(C)[C@@H]1CC[C@]2(COCCCNCCCN)CC[C@]3(C)[C@H](CC[C@@H]4[C@@]5(C)CC[C@H](OCCCN)C(C)(C)[C@@H]5CC[C@]43C)[C@@H]12	2.12	8.33	0.913	1.66	0.898	1.67	1.72	5.81	0.928	1.73	0.778	1.56	0.868	1.72	0.778	1.57	0.822	1.97	0.833	1.53
O=C1/C(=C/c2ccc(F)c(F)c2)CN(C(=O)C(Cl)Cl)C/C1=C\c1ccc(F)c(F)c1	0.113	0.97	0.0782	0.274	0.0326	0.12	0.19	0.38	0.0497	0.2	0.175	0.756	0.166	0.503	0.29	1.3	0.0266	> 100	0.142	0.324
COC(NC(N)=O)C(=O)O (stereo not given)	–	> 100	–	> 100	–	> 100	–	> 100	–	> 100	–	> 100	–	> 100	–	> 100	–	> 100	–	> 100
CN(C)C[C@H]1CCn2c(c(C3=C(c4cn(C)c5ccccc45)C(=O)NC3=O)c3ccccc32)C1	5.65	11.3	5.65	16.6	3.47	7.27	4.09	7.71	4.57	8.66	3.71	7.5	4.86	9.17	0.562	5.16	4.46	12.4	3.95	7.9
C=C1C(=O)O[C@H]2[C@H]1CC/C(Cn1cc(Cc3c[nH]c4ccccc34)nn1)=C\CC[C@@]1(C)O[C@@H]21	2.02	4.74	2.55	6.33	1.06	2.38	1.89	3.61	2.34	4.99	1.83	3.75	1.43	3	3.08	12.5	0.718	5.92	1.73	3.46
O=C(O)CNc1ccc(Cl)c(Cl)c1	–	78.5	–	> 100	–	44.7	–	87.9	–	55.1	–	41.7	–	38	–	94.1	–	84.8	–	79.2
CCCCC[C@H]1CC=C2C(=O)C=C[C@@H]2CC=CCCCC(=O)O[C@@H](CCCCC)CC=C2C(=O)C=C[C@@H]2CC=CCCCC(=O)O[C@@H](CCCCC)CC=C2C(=O)C=C[C@@H]2CC=CCCCC(=O)O1	0.243	0.76	0.55	> 8.75	0.221	0.906	0.737	1.87	0.31	1.22	0.169	0.368	0.218	0.797	4.8	> 8.75	0.251	> 8.75	0.183	0.526
CCN(CC)CCC(=O)OC1C(C)=CC(C)C(=O)CC(C(C)CC2CCC(O)C(OC)C2)OC(=O)C2CCCCN2C(=O)C(=O)[C@@]2(O)OC(CCC2C)CC(OC)\C(C)=C/C=C/C=C/C(C)CC(C)C(=O)C1OC (stereo not given in full)	–	16	–	21.6	–	20.1	–	17.2	–	21.2	–	24.6	–	26.5	–	0.971	–	13.8	–	21.2
O=C1NC(=O)[C@@]2(CC[C@@H](O)C2)c2ccncc21	–	> 100	–	> 100	–	> 100	–	> 100	–	> 100	–	> 100	–	> 100	–	> 100	–	> 100	–	> 100
O=C(O)C1CCN(Cc2oc(CO)cc(=O)c2O)C1 (stereo not given)	–	> 100	–	> 100	–	> 100	–	> 100	–	> 100	–	> 100	–	> 100	–	> 100	–	> 100	–	> 100
COc1ccc(-c2nsc3c2NC(=O)CC3c2ccc3c(c2)OCCO3)cc1 (stereo not given)	0.326	12.5	0.924	> 100	0.526	> 100	0.37	5.86	0.521	> 100	0.431	2.18	0.551	> 100	0.22	> 100	0.406	> 100	0.173	0.438
Oc1[nH]c(N=C2N=c3ccccc3=N2)c2ccccc12	13.7	52.9	15.7	93	7.3	29.5	8.57	> 100	11.5	42.9	6.39	20.5	11.2	41.6	10.9	31.5	1.48	27.8	12.4	69.4
CCn1c(-c2c(Cl)cc(O)cc2Cl)cc2c(Cl)cc(O)cc21	–	26.2	–	28.3	–	> 100	–	12.5	–	61	–	36.8	–	6.68	–	20.9	–	> 100	–	13
